From patent US20240166642A1, “INHIBITORS OF MYELOPEROXIDASE” (ASTRAZENECA AB, priority 2022, published 2024) come the findings set out here.

In experiment [1] the target is MPO (purified from HL60 cells) (Homo sapiens (Human), UniProt P05164). Kind of experiment: MPO activity (IC50), luminol chemiluminescence assay. Type of experiment: biochemical. The settings on record: PBS pH7.4, luminol 100 μM, H2O2 50 μM, chemiluminescence recorded after 15 minutes. The method, then:
(§1) The experiments were performed in phosphate-buffered saline (PBS), pH7.4. A 10 mM luminol (A4695, Sigma Aldrich, St Louis, MO, USA) stock was prepared in distilled water and further diluted in PBS to a final concentration of 100 μM. H2O2 was prepared as 1 mM stock in PBS, yielding a final concentration of 50 μM after addition into the assay. The compounds were serially diluted in DMSO in a separate plate as a 100× stock solution, and MPO (purified from HL60 cells) and TPO (produced in insect cells, RSR Ltd, Cardiff, UK), were diluted to yield a final concentration of approximately 14 and 150 ng/mL, generating 5600 and 9300 light counts per seconds (LCPS) upon incubation with luminol.
(§2) The experiment was run by pipetting 2 μL 100× stock solution of the compound and 200 μL diluted enzyme in PBS into wells in a 96-well Optiplate (6005290, Perkin Elmer/Thermo Fischer, Waltham, MS, USA), followed by addition of 10 μL H2O2 containing PBS. Chemiluminescence measurement (Perkin Elmer Wallac Microbeta Trilux 1450-029 (12-detector), Turkuu, Finland) was started directly and recorded after 2, 10 and 15 minutes.

In experiment [2] the target is TPO (produced in insect cells, RSR Ltd) (Homo sapiens (Human), UniProt P07202). Briefly: TPO activity (IC50), luminol chemiluminescence assay. It is filed as biochemical. The following applies: PBS pH7.4, luminol 100 μM, H2O2 50 μM, chemiluminescence recorded after 15 minutes. The method, then:
as §1, §2

Each structure is given as a SMILES string.

Chain of TPO (produced in insect cells, RSR Ltd) (P07202 19-933): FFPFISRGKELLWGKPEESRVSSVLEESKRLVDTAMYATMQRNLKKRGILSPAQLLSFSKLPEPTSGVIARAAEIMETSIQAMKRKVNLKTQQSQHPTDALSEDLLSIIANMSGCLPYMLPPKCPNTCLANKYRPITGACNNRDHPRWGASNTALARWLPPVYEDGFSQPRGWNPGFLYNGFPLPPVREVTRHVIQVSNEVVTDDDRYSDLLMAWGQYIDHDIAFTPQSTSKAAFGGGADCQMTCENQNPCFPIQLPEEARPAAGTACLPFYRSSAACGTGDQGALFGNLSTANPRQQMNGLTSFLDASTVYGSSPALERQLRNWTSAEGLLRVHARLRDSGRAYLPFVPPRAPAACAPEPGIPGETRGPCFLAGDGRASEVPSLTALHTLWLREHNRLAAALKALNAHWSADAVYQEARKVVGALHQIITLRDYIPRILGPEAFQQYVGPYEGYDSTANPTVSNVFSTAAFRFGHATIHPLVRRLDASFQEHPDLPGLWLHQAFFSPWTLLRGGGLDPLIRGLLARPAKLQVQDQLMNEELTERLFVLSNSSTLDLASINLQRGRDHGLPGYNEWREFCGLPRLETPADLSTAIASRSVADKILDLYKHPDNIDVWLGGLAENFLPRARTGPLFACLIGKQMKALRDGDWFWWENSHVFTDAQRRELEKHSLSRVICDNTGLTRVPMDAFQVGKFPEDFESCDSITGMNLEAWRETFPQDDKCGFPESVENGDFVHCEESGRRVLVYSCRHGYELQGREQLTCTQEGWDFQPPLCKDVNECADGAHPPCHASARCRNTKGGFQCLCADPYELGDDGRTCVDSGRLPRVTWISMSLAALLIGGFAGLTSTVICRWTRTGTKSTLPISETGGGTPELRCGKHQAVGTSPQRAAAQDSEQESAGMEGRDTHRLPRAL
Chain of MPO (purified from HL60 cells) (P05164 49-745): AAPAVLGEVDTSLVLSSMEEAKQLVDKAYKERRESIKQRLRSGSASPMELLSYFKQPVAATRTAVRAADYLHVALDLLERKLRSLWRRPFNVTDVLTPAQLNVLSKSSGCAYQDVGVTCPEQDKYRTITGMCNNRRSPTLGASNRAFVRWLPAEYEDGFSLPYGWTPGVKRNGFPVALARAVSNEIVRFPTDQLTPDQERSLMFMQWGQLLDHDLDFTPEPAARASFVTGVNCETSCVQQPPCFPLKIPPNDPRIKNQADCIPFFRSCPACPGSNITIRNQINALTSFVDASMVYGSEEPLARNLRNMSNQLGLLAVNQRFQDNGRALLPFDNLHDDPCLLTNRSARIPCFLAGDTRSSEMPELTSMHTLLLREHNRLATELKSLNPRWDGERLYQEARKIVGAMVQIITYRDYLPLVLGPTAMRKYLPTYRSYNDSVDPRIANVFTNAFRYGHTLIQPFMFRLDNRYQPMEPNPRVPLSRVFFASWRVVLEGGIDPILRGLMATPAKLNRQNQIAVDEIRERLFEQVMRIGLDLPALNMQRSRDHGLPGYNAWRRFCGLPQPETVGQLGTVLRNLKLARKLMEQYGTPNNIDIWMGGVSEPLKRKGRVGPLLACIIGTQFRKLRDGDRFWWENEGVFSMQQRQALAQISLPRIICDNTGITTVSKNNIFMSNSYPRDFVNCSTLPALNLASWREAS

What is called IC50 is the midpoint of a concentration-inhibition curve. A low value points to greater potency. Take `O=c1[nH]c(=S)n(Cc2ccccc2[C@H]2C[C@@H](C(F)(F)F)CCN2)c2cc[nH]c12` (single isomer, unassigned) [Example 10a]: the values for the IC50 in experiment [1] and in experiment [2] were 6 nM and 1200 nM, respectively.

As to `O=c1[nH]c(=S)n(Cc2cccnc2[C@H]2C[C@H](C(F)(F)F)CCN2)c2cc[nH]c12` (single isomer, unassigned) [Example 31a], the figures for the IC50 in experiment [1] and in experiment [2] were 30 nM and 1700 nM, respectively.

For the compound `O=c1[nH]c(=S)n(Cc2ccccc2C2CCNCC2)c2cc[nH]c12` [Example 30, 1-(2-(Piperidin-4-yl)benzyl)-2-thioxo-1,2,3,5-tetrahydro-4H-pyrrolo[3,2-d]pyrimidin-4-one], the results for the IC50 in experiment [1] and in experiment [2] were 29 nM and 590 nM, respectively.

As to `O=c1[nH]c(=S)n(Cc2ccccc2[C@H]2CCCCN2)c2cc[nH]c12` (single isomer, unassigned) [Example 1a], the values for the IC50 in experiment [1] and in experiment [2] were 12.1 nM and 1010 nM, respectively.

Turning to `NC1(c2ccc(Cn3c(=S)[nH]c(=O)c4[nH]ccc43)cc2)CCC1` [Example 24, 1-(4-(1-Aminocyclobutyl)benzyl)-2-thioxo-1,2,3,5-tetrahydro-4H-pyrrolo[3,2-d]pyrimidin-4-one], the results for the IC50 in experiment [1] and in experiment [2] were 12 nM and 560 nM, respectively.

As for `O=c1[nH]c(=S)n(Cc2ccccc2[C@@H]2CCCCCN2)c2cc[nH]c12` (single isomer, unassigned) [Example 6a], the IC50 worked out at 19.6 nM in experiment [1] and 420 nM in experiment [2].

For the compound `O=c1[nH]c(=S)n(Cc2cccc3c2CNCC3)c2cc[nH]c12` [Example 23, 1-((1,2,3,4-Tetrahydroisoquinolin-8-yl)methyl)-2-thioxo-1,2,3,5-tetrahydro-4H-pyrrolo[3,2-d]pyrimidin-4-one], the IC50 amounted to 10 nM in experiment [1] and 380 nM in experiment [2].

On to `O=c1[nH]c(=S)n(Cc2ccccc2[C@H]2C[C@@H](C(F)(F)F)CCN2)c2cc[nH]c12` (single isomer, unassigned) [Example 10b], for which the IC50 in experiment [1] came to 1.5 nM; in experiment [2] it was 430 nM.

As for `O=c1[nH]c(=S)n(Cc2ccccc2[C@H]2CC(F)(F)CCN2)c2cc[nH]c12` (single isomer, unassigned) [Example 12a], the IC50 in experiment [1] was determined as 27 nM; in experiment [2], 670 nM.

As for `O=c1[nH]c(=S)n(Cc2ccccc2[C@H]2C[C@H](C(F)(F)F)CCN2)c2cc[nH]c12` (stereo in doubt) [Example 17a, rel-2-Thioxo-1-(2-((2R,4R)-4-(trifluoromethyl)piperidin-2-yl)benzyl)-1,2,3,5-tetrahydro-4H-pyrrolo[3,2-d]pyrimidin-4-one], the IC50 in experiment [1] came to 16.5 nM; in experiment [2], 760 nM.

`O=c1[nH]c(=S)n(Cc2ccc(Cl)cc2[C@H]2COCCN2)c2cc[nH]c12` (single isomer, unassigned) [Example 4b]: the values for the IC50 in experiment [1] and in experiment [2] were 127 nM and 810 nM, respectively.

For `O=c1[nH]c(=S)n(Cc2ccccc2C2CCC(C(F)(F)F)CN2)c2cc[nH]c12` (centres unmarked) [Example 11, 2-Thioxo-1-(2-(5-(trifluoromethyl)piperidin-2-yl)benzyl)-1,2,3,5-tetrahydro-4H-pyrrolo[3,2-d]pyrimidin-4-one], the figures for the IC50 in experiment [1] and in experiment [2] were 13 nM and 540 nM, respectively.

`O=c1[nH]c(=S)n(Cc2ccccc2[C@@H]2CCCCCN2)c2cc[nH]c12` (single isomer, unassigned) [Example 6b]: the IC50 in experiment [1] worked out at 2.8 nM; in experiment [2] it was 300 nM.

For `O=c1[nH]c(=S)n(Cc2ccc(Cl)cc2[C@H]2CCCN2)c2cc[nH]c12` (single isomer, unassigned) [Example 3a], the IC50 in experiment [1] was determined as 3 nM; in experiment [2] it was 550 nM.

For the compound `O=c1[nH]c(=S)n(Cc2cccnc2[C@H]2C[C@H](C(F)(F)F)CCN2)c2cc[nH]c12` (single isomer, unassigned) [Example 31b], the IC50 was 48 nM in experiment [1] and 2900 nM in experiment [2].

On to `O=c1[nH]c(=S)n(Cc2ccccc2[C@H]2CNCCO2)c2cc[nH]c12` (single isomer, unassigned) [Example 29], for which the IC50 in experiment [1] came to 15 nM; in experiment [2] it was 540 nM.

In the case of `O=c1[nH]c(=S)n(Cc2ccc(Cl)cc2[C@H]2COCCN2)c2cc[nH]c12` (single isomer, unassigned) [Example 4a], the IC50 in experiment [1] worked out at 18.7 nM; in experiment [2], 370 nM.

On to `O=c1[nH]c(=S)n(Cc2ccc(Cl)cc2[C@H]2CCCCCN2)c2nc[nH]c12` [Example 7, (R)-3-(2-(Azepan-2-yl)-4-chlorobenzyl)-2-thioxo-1,2,3,7-tetrahydro-6H-purin-6-one], for which the results for the IC50 in experiment [1] and in experiment [2] were 7.1 nM and 610 nM, respectively.

In the case of `O=c1[nH]c(=S)n(Cc2ccccc2[C@H]2C[C@@H](C(F)(F)F)CCN2)c2nc[nH]c12` [Example 13a, 2-Thioxo-3-(2-((2R,4S)-4-(trifluoromethyl)piperidin-2-yl)benzyl)-1,2,3,7-tetrahydro-6H-purin-6-one], the IC50 is 16 nM in experiment [1] and 1050 nM in experiment [2].

As for `O=c1[nH]c(=S)n(Cc2cccnc2C2CCCCN2)c2cc[nH]c12` (centres unmarked) [Example 20, 1-((2-(Piperidin-2-yl)pyridin-3-yl)methyl)-2-thioxo-1,2,3,5-tetrahydro-4H-pyrrolo[3,2-d]pyrimidin-4-one], the IC50 was determined as 46 nM in experiment [1] and 2760 nM in experiment [2].

With `O=c1[nH]c(=S)n(Cc2ccccc2[C@H]2CC(F)(F)CCN2)c2cc[nH]c12` (single isomer, unassigned) [Example 12b], the IC50 in experiment [1] came out at 2.7 nM; in experiment [2] it was 320 nM.

Turning to `O=c1[nH]c(=S)n(Cc2ccccc2[C@H]2C[C@@H](C(F)F)CCN2)c2cc[nH]c12` (single isomer, unassigned) [Example 19b], the IC50 in experiment [1] is 1.3 nM; in experiment [2] it was 570 nM.

For the compound `O=c1[nH]c(=S)n(Cc2ccc(Cl)cc2[C@H]2CCCN2)c2cc[nH]c12` (single isomer, unassigned) [Example 3b], the values for the IC50 in experiment [1] and in experiment [2] were 27.5 nM and 700 nM, respectively.

Regarding `O=c1[nH]c(=S)n(Cc2ccncc2[C@H]2C[C@@H](C(F)(F)F)CCN2)c2cc[nH]c12` (racemic) [Example 22, rac-2-Thioxo-1-((3-((2R,4S)-4-(trifluoromethyl)piperidin-2-yl)pyridin-4-yl)methyl)-1,2,3,5-tetrahydro-4H-pyrrolo[3,2-d]pyrimidin-4-one], the results for the IC50 in experiment [1] and in experiment [2] were 11.5 nM and 950 nM, respectively.

Take `O=c1[nH]c(=S)n(Cc2ncccc2[C@H]2C[C@@H](C(F)(F)F)CCN2)c2cc[nH]c12` (racemic) [Example 21, rac-2-Thioxo-1-((3-((2R,4S)-4-(trifluoromethyl)piperidin-2-yl)pyridin-2-yl)methyl)-1,2,3,5-tetrahydro-4H-pyrrolo[3,2-d]pyrimidin-4-one]: the values for the concentration for half-maximal inhibition (IC50) in experiment [1] and in experiment [2] were 5.7 nM and 540 nM, respectively.

For the compound `O=c1[nH]c(=S)n(Cc2cccnc2[C@H]2C[C@@H](C(F)(F)F)CCN2)c2cc[nH]c12` (single isomer, unassigned) [Example 16b], the figures for the IC50 in experiment [1] and in experiment [2] were 3.9 nM and 780 nM, respectively.

`O=c1[nH]c(=S)n(Cc2ccccc2[C@@H]2C[C@@H](C(F)(F)F)CCN2)c2cc[nH]c12` (stereo in doubt) [Example 17b, rac-2-thioxo-1-(2-((2R,4R)-4-(trifluoromethyl)piperidin-2-yl)benzyl)-1,2,3,5-tetrahydro-4H-pyrrolo[3,2-d]pyrimidin-4-one]: the IC50 amounted to 3.4 nM in experiment [1] and 630 nM in experiment [2].

Consider `O=c1[nH]c(=S)n(Cc2ccc(Cl)cc2[C@H]2CCCCN2)c2cc[nH]c12` (single isomer, unassigned) [Example 2a], for which the figures for the IC50 in experiment [1] and in experiment [2] were 12.2 nM and 1040 nM, respectively.

Turning to `O=c1[nH]c(=S)n(Cc2ccccc2C2CC(F)(F)CCN2)c2nc[nH]c12` (centres unmarked) [Example 14, 3-(2-(4,4-Difluoropiperidin-2-yl)benzyl)-2-thioxo-1,2,3,7-tetrahydro-6H-purin-6-one], the figures for the IC50 in experiment [1] and in experiment [2] were 7.2 nM and 540 nM, respectively.

Regarding `O=c1[nH]c(=S)n(Cc2ccccc2[C@H]2C[C@@H](C(F)F)CCN2)c2cc[nH]c12` (single isomer, unassigned) [Example 19a], the IC50 in experiment [1] was determined as 11.9 nM; in experiment [2], 1760 nM.

Consider `O=c1[nH]c(=S)n(Cc2ccc(Cl)cc2[C@H]2CCCCN2)c2cc[nH]c12` (single isomer, unassigned) [Example 2b], for which the IC50 in experiment [1] came to 3.6 nM; in experiment [2], 550 nM.

In the case of `O=c1[nH]c(=S)n(Cc2ccc3c(c2)CNC3)c2cc[nH]c12` [Example 25, 1-(Isoindolin-5-ylmethyl)-2-thioxo-1,2,3,5-tetrahydro-4H-pyrrolo[3,2-d]pyrimidin-4-one], the results for the IC50 in experiment [1] and in experiment [2] were 103 nM and 570 nM, respectively.

As to `NC1(c2cccc(Cn3c(=S)[nH]c(=O)c4[nH]ccc43)c2)CCC1` [Example 27, 1-(3-(1-Aminocyclobutyl)benzyl)-2-thioxo-1,2,3,5-tetrahydro-4H-pyrrolo[3,2-d]pyrimidin-4-one], the values for the IC50 in experiment [1] and in experiment [2] were 5 nM and 670 nM, respectively.

On to `O=c1[nH]c(=S)n(Cc2ccccc2C2CCC(F)CN2)c2nc[nH]c12` (centres unmarked) [Example 15, 3-(2-(5-Fluoropiperidin-2-yl)benzyl)-2-thioxo-1,2,3,7-tetrahydro-6H-purin-6-one], for which the values for the IC50 in experiment [1] and in experiment [2] were 16 nM and 540 nM, respectively.
